Data reported in ChEMBL document CHEMBL4373723 (J Med Chem, 2019).
Bridge positions count the residues as written; N and C are the ends. Square brackets hold non-standard residues; d marks the D form. Peptide text beside a SMILES is read from it. I, II: the chains in the order shown. Phe(3-Cl) = N[C@@H](Cc1cccc(Cl)c1)C(=O)O; Phe(4-Cl) = N[C@@H](Cc1ccc(Cl)cc1)C(=O)O; Phe(4-Me) = Cc1ccc(C[C@H](N)C(=O)O)cc1; Ala(cPent) = N[C@@H](CC1CCCC1)C(=O)O; Cba = N[C@@H](CC1CCC1)C(=O)O

How the values were obtained:
[1] = target: T1, Frizzled-7 (Homo sapiens, UniProt O75084); format: cell-based; conditions: cho
[2] = target: T1, Frizzled-7; test: biochemical; format: cell-based, CHO; conditions: read-out: Kd
[3] = target: T1, Frizzled-7; conditions: CHO
Description: Binding affinity to recombinant human Frizzled-7 (Gln33 to Leu185 residues)/human IgG1 chimeric protein expressed in CHO cells assessed as association rate constant by SPR assay

SMILES | Kd [1] | Kd [2] | Ka [3]
CSCC[C@H](NC(=O)[C@@H](NC(=O)[C@H](Cc1cnc[nH]1)NC(=O)[C@H](CSSC[C@H](NC(=O)[C@H](Cc1c[nH]c2ccccc12)NC(=O)[C@H](Cc1ccccc1)NC(=O)[C@H](CCC(=O)O)NC(=O)[C@H](CC(C)C)NC(=O)[C@H](CC(=O)O)NC(=O)[C@H](CC(=O)O)NC(=O)[C@H](CO)NC(C)=O)C(=O)N[C@@H](Cc1cnc[nH]1)C(=O)N[C@H](C(=O)N[C@@H](CCSC)C(=O)N[C@@H](Cc1ccc(Cl)cc1)C(N)=O)C(C)C)NC(=O)[C@H](Cc1c[nH]c2ccccc12)NC(=O)[C@H](Cc1ccccc1)NC(=O)[C@H](CCC(=O)O)NC(=O)[C@H](CC(C)C)NC(=O)[C@H](CC(=O)O)NC(=O)[C@H](CC(=O)O)NC(=O)[C@H](CO)NC(C)=O)C(C)C)C(=O)N[C@@H](Cc1ccc(Cl)cc1)C(N)=O (I: Ac-SDDLEFWCHVM[Phe(4-Cl)]-NH2 / II: Ac-SDDLEFWCHVM[Phe(4-Cl)]-NH2; disulfide I:8-II:8) | 0.82 ×10⁻³ /s | 0.88 nM | 9.3 ×10⁵ /M/s
CSCC[C@H](NC(=O)[C@@H](NC(=O)[C@H](Cc1cnc[nH]1)NC(=O)[C@H](CSSC[C@H](NC(=O)[C@H](Cc1c[nH]c2ccccc12)NC(=O)[C@H](Cc1ccccc1)NC(=O)[C@H](CCC(=O)O)NC(=O)[C@H](CC(C)C)NC(=O)[C@H](CC(=O)O)NC(=O)[C@H](CC(=O)O)NC(=O)[C@H](CO)NC(C)=O)C(=O)N[C@@H](Cc1cnc[nH]1)C(=O)N[C@H](C(=O)N[C@@H](CCSC)C(=O)N[C@@H](Cc1ccc(C)cc1)C(N)=O)C(C)C)NC(=O)[C@H](Cc1c[nH]c2ccccc12)NC(=O)[C@H](Cc1ccccc1)NC(=O)[C@H](CCC(=O)O)NC(=O)[C@H](CC(C)C)NC(=O)[C@H](CC(=O)O)NC(=O)[C@H](CC(=O)O)NC(=O)[C@H](CO)NC(C)=O)C(C)C)C(=O)N[C@@H](Cc1ccc(C)cc1)C(N)=O (I: Ac-SDDLEFWCHVM[Phe(4-Me)]-NH2 / II: Ac-SDDLEFWCHVM[Phe(4-Me)]-NH2; disulfide I:8-II:8) | 0.98 ×10⁻³ /s | 0.97 nM | 10.2 ×10⁵ /M/s
CSCC[C@H](NC(=O)[C@@H](NC(=O)[C@H](Cc1cnc[nH]1)NC(=O)[C@H](CSSC[C@H](NC(=O)[C@H](Cc1c[nH]c2ccccc12)NC(=O)[C@H](CC(C)C)NC(=O)[C@H](CCC(=O)O)NC(=O)[C@H](CC(C)C)NC(=O)[C@H](CC(=O)O)NC(=O)[C@H](CC(=O)O)NC(=O)[C@H](CO)NC(C)=O)C(=O)N[C@@H](Cc1cnc[nH]1)C(=O)N[C@H](C(=O)N[C@@H](CCSC)C(=O)N[C@@H](Cc1ccc(O)cc1)C(N)=O)C(C)C)NC(=O)[C@H](Cc1c[nH]c2ccccc12)NC(=O)[C@H](CC(C)C)NC(=O)[C@H](CCC(=O)O)NC(=O)[C@H](CC(C)C)NC(=O)[C@H](CC(=O)O)NC(=O)[C@H](CC(=O)O)NC(=O)[C@H](CO)NC(C)=O)C(C)C)C(=O)N[C@@H](Cc1ccc(O)cc1)C(N)=O (I: Ac-SDDLELWCHVMY-NH2 / II: Ac-SDDLELWCHVMY-NH2; disulfide I:8-II:8) | 0.6 ×10⁻³ /s | 0.079 nM | 76.5 ×10⁵ /M/s
CC[C@H](C)[C@H](NC(=O)[C@H](Cc1cnc[nH]1)NC(=O)[C@H](CSSC[C@H](NC(=O)[C@H](Cc1c[nH]c2ccccc12)NC(=O)[C@H](Cc1cccc(Cl)c1)NC(=O)[C@H](CCC(=O)O)NC(=O)[C@H](CC(C)C)NC(=O)[C@H](CC(=O)O)NC(=O)[C@H](CC(=O)O)NC(=O)[C@H](CO)NC(C)=O)C(=O)N[C@@H](Cc1cnc[nH]1)C(=O)N[C@H](C(=O)N[C@@H](CCSC)C(=O)N[C@@H](Cc1ccc(O)cc1)C(N)=O)[C@@H](C)CC)NC(=O)[C@H](Cc1c[nH]c2ccccc12)NC(=O)[C@H](Cc1cccc(Cl)c1)NC(=O)[C@H](CCC(=O)O)NC(=O)[C@H](CC(C)C)NC(=O)[C@H](CC(=O)O)NC(=O)[C@H](CC(=O)O)NC(=O)[C@H](CO)NC(C)=O)C(=O)N[C@@H](CCSC)C(=O)N[C@@H](Cc1ccc(O)cc1)C(N)=O (I: Ac-SDDLE[Phe(3-Cl)]WCHIMY-NH2 / II: Ac-SDDLE[Phe(3-Cl)]WCHIMY-NH2; disulfide I:8-II:8) | 0.57 ×10⁻³ /s | 0.083 nM | 68.4 ×10⁵ /M/s
CSCC[C@H](NC(=O)[C@@H](NC(=O)[C@H](Cc1cnc[nH]1)NC(=O)[C@H](CSSC[C@H](NC(=O)[C@H](Cc1c[nH]c2ccccc12)NC(=O)[C@H](Cc1cccc(Cl)c1)NC(=O)[C@H](CCC(=O)O)NC(=O)[C@H](CC(C)C)NC(=O)[C@H](CC(=O)O)NC(=O)[C@H](CC(=O)O)NC(=O)[C@H](CO)NC(C)=O)C(=O)N[C@@H](Cc1cnc[nH]1)C(=O)N[C@H](C(=O)N[C@@H](CCSC)C(=O)N[C@@H](Cc1ccc(O)cc1)C(N)=O)C(C)C)NC(=O)[C@H](Cc1c[nH]c2ccccc12)NC(=O)[C@H](Cc1cccc(Cl)c1)NC(=O)[C@H](CCC(=O)O)NC(=O)[C@H](CC(C)C)NC(=O)[C@H](CC(=O)O)NC(=O)[C@H](CC(=O)O)NC(=O)[C@H](CO)NC(C)=O)C(C)C)C(=O)N[C@@H](Cc1ccc(O)cc1)C(N)=O (I: Ac-SDDLE[Phe(3-Cl)]WCHVMY-NH2 / II: Ac-SDDLE[Phe(3-Cl)]WCHVMY-NH2; disulfide I:8-II:8) | 0.63 ×10⁻³ /s | 0.1 nM | 66.3 ×10⁵ /M/s
CSCC[C@H](NC(=O)[C@@H](NC(=O)[C@H](Cc1cnc[nH]1)NC(=O)[C@H](CSSC[C@H](NC(=O)[C@H](Cc1c[nH]c2ccccc12)NC(=O)[C@H](Cc1ccc(Cl)cc1)NC(=O)[C@H](CCC(=O)O)NC(=O)[C@H](CC(C)C)NC(=O)[C@H](CC(=O)O)NC(=O)[C@H](CC(=O)O)NC(=O)[C@H](CO)NC(C)=O)C(=O)N[C@@H](Cc1cnc[nH]1)C(=O)N[C@H](C(=O)N[C@@H](CCSC)C(=O)N[C@@H](Cc1ccc(O)cc1)C(N)=O)C(C)C)NC(=O)[C@H](Cc1c[nH]c2ccccc12)NC(=O)[C@H](Cc1ccc(Cl)cc1)NC(=O)[C@H](CCC(=O)O)NC(=O)[C@H](CC(C)C)NC(=O)[C@H](CC(=O)O)NC(=O)[C@H](CC(=O)O)NC(=O)[C@H](CO)NC(C)=O)C(C)C)C(=O)N[C@@H](Cc1ccc(O)cc1)C(N)=O (I: Ac-SDDLE[Phe(4-Cl)]WCHVMY-NH2 / II: Ac-SDDLE[Phe(4-Cl)]WCHVMY-NH2; disulfide I:8-II:8) | 1.71 ×10⁻³ /s | 1.04 nM | 16.5 ×10⁵ /M/s
CSCC[C@H](NC(=O)[C@@H](NC(=O)[C@H](Cc1cnc[nH]1)NC(=O)[C@H](CSSC[C@H](NC(=O)[C@H](Cc1c[nH]c2ccccc12)NC(=O)[C@H](Cc1ccccc1)NC(=O)[C@H](CCCCN)NC(=O)[C@H](CC(C)C)NC(=O)[C@H](CC(=O)O)NC(=O)[C@H](CC(=O)O)NC(=O)[C@H](CO)NC(C)=O)C(=O)N[C@@H](Cc1cnc[nH]1)C(=O)N[C@H](C(=O)N[C@@H](CCSC)C(=O)N[C@@H](Cc1ccc(O)cc1)C(N)=O)C(C)C)NC(=O)[C@H](Cc1c[nH]c2ccccc12)NC(=O)[C@H](Cc1ccccc1)NC(=O)[C@H](CCCCN)NC(=O)[C@H](CC(C)C)NC(=O)[C@H](CC(=O)O)NC(=O)[C@H](CC(=O)O)NC(=O)[C@H](CO)NC(C)=O)C(C)C)C(=O)N[C@@H](Cc1ccc(O)cc1)C(N)=O (I: Ac-SDDLKFWCHVMY-NH2 / II: Ac-SDDLKFWCHVMY-NH2; disulfide I:8-II:8) | 1.33 ×10⁻³ /s | 0.157 nM | 85.6 ×10⁵ /M/s
CSCC[C@H](NC(=O)[C@@H](NC(=O)[C@H](Cc1cnc[nH]1)NC(=O)[C@H](CSSC[C@H](NC(=O)[C@H](Cc1c[nH]c2ccccc12)NC(=O)[C@H](CC(C)C)NC(=O)[C@H](CCCCN)NC(=O)[C@H](CC(C)C)NC(=O)[C@H](CC(=O)O)NC(=O)[C@H](CC(=O)O)NC(=O)[C@H](CO)NC(C)=O)C(=O)N[C@@H](Cc1cnc[nH]1)C(=O)N[C@H](C(=O)N[C@@H](CCSC)C(=O)N[C@@H](Cc1ccc(O)cc1)C(N)=O)C(C)C)NC(=O)[C@H](Cc1c[nH]c2ccccc12)NC(=O)[C@H](CC(C)C)NC(=O)[C@H](CCCCN)NC(=O)[C@H](CC(C)C)NC(=O)[C@H](CC(=O)O)NC(=O)[C@H](CC(=O)O)NC(=O)[C@H](CO)NC(C)=O)C(C)C)C(=O)N[C@@H](Cc1ccc(O)cc1)C(N)=O (I: Ac-SDDLKLWCHVMY-NH2 / II: Ac-SDDLKLWCHVMY-NH2; disulfide I:8-II:8) | 0.58 ×10⁻³ /s | 0.142 nM | 55.6 ×10⁵ /M/s
CSCC[C@H](NC(=O)[C@@H](NC(=O)[C@H](Cc1cnc[nH]1)NC(=O)[C@H](CSSC[C@H](NC(=O)[C@H](Cc1c[nH]c2ccccc12)NC(=O)[C@H](Cc1ccccc1)NC(=O)[C@H](CCC(=O)O)NC(=O)[C@H](CC1CCCC1)NC(=O)[C@H](CC(=O)O)NC(=O)[C@H](CC(=O)O)NC(=O)[C@H](CO)NC(C)=O)C(=O)N[C@@H](Cc1cnc[nH]1)C(=O)N[C@H](C(=O)N[C@@H](CCSC)C(=O)N[C@@H](Cc1ccc(O)cc1)C(N)=O)C(C)C)NC(=O)[C@H](Cc1c[nH]c2ccccc12)NC(=O)[C@H](Cc1ccccc1)NC(=O)[C@H](CCC(=O)O)NC(=O)[C@H](CC1CCCC1)NC(=O)[C@H](CC(=O)O)NC(=O)[C@H](CC(=O)O)NC(=O)[C@H](CO)NC(C)=O)C(C)C)C(=O)N[C@@H](Cc1ccc(O)cc1)C(N)=O (I: Ac-SDD[Ala(cPent)]EFWCHVMY-NH2 / II: Ac-SDD[Ala(cPent)]EFWCHVMY-NH2; disulfide I:8-II:8) | 9.9 ×10⁻³ /s | 2.1 nM | 46.5 ×10⁵ /M/s
CSCC[C@H](NC(=O)[C@@H](NC(=O)[C@H](Cc1cnc[nH]1)NC(=O)[C@H](CSSC[C@H](NC(=O)[C@H](Cc1c[nH]c2ccccc12)NC(=O)[C@H](Cc1ccccc1)NC(=O)[C@H](CCC(=O)O)NC(=O)[C@H](CC1CCC1)NC(=O)[C@H](CC(=O)O)NC(=O)[C@H](CC(=O)O)NC(=O)[C@H](CO)NC(C)=O)C(=O)N[C@@H](Cc1cnc[nH]1)C(=O)N[C@H](C(=O)N[C@@H](CCSC)C(=O)N[C@@H](Cc1ccc(O)cc1)C(N)=O)C(C)C)NC(=O)[C@H](Cc1c[nH]c2ccccc12)NC(=O)[C@H](Cc1ccccc1)NC(=O)[C@H](CCC(=O)O)NC(=O)[C@H](CC1CCC1)NC(=O)[C@H](CC(=O)O)NC(=O)[C@H](CC(=O)O)NC(=O)[C@H](CO)NC(C)=O)C(C)C)C(=O)N[C@@H](Cc1ccc(O)cc1)C(N)=O (I: Ac-SDD[Cba]EFWCHVMY-NH2 / II: Ac-SDD[Cba]EFWCHVMY-NH2; disulfide I:8-II:8) | 9.7 ×10⁻³ /s | 20.3 nM | 4.6 ×10⁵ /M/s
